The source of these data is ChEMBL document CHEMBL3045873, “Synthesis and anti-juvenile hormone activity of ethyl 4-(2-benzylalkyloxy)benzoates and their enantiomers” (2007).

Assay type in all cases: functional
Assay [1] relates to Bombyx mori. Nature of the assay: Anti-juvenile hormone activity in Bombyx mori Shunrei x Shougetsu 24 hr old third-instar larvae exposed to compound through topical application to dorsal abdomen assessed as precocious metamorphosis at 40 ug/larva relative to untreated control.
The test system of assay [2] is Bombyx mori. Nature of the assay: Anti-juvenile hormone activity in Bombyx mori Shunrei x Shougetsu newly molted fourth-instar larvae assessed as precocious metamorphosis at 1 ug/larva relative to untreated control.
In assay [3] the test system is Bombyx mori. Nature of the assay: Anti-juvenile hormone activity in Bombyx mori Shunrei x Shougetsu 24 hr old fifth-instar larvae assessed as time required for onset of cocoon spinning starting from ecdysis day at 1 ug/1 ul applied topically (reference value: 8 +/- 1.2 days).
Assay [4] relates to Bombyx mori. The experiment in a line: Anti-juvenile hormone activity in Bombyx mori Shunrei x Shougetsu 72 hr old second-instar larvae assessed as precocious metamorphosis at 1 ug/larva relative to untreated control.
In assay [5] the test system is Bombyx mori. Nature of the assay: Anti-juvenile hormone activity in Bombyx mori Shunrei x Shougetsu newly molted fourth-instar larvae assessed as precocious metamorphosis at 10 ug/larva relative to untreated control.
For assay [6], the system named is Bombyx mori. Nature of the assay: Anti-juvenile hormone activity in Bombyx mori Shunrei x Shougetsu 24 hr old third-instar larvae exposed to compound through topical application to dorsal abdomen assessed as precocious metamorphosis at 1 ug/larva relative to untreated control.
For assay [7], the system named is Bombyx mori. Nature of the assay: Anti-juvenile hormone activity in Bombyx mori Shunrei x Shougetsu 72 hr old second-instar larvae assessed as precocious metamorphosis at 0.1 ug/larva relative to untreated control.
For assay [8], the system named is Bombyx mori. Nature of the assay: Anti-juvenile hormone activity in Bombyx mori Shunrei x Shougetsu 24 hr old third-instar larvae exposed to compound through topical application to dorsal abdomen assessed as precocious metamorphosis at 0.1 ug/larva relative to untreated control.
In assay [9] the test system is Bombyx mori. Nature of the assay: Anti-juvenile hormone activity in Bombyx mori Shunrei x Shougetsu 72 hr old second-instar larvae assessed as precocious metamorphosis at 10 ug/larva relative to untreated control.
Assay [10] has as its system Bombyx mori. The experiment in a line: Anti-juvenile hormone activity in Bombyx mori Shunrei x Shougetsu 24 hr old third-instar larvae exposed to compound through topical application to dorsal abdomen assessed as precocious metamorphosis at 10 ug/larva relative to untreated control.
Assay [11] concerns Bombyx mori. Nature of the assay: Anti-juvenile hormone activity in Bombyx mori Shunrei x Shougetsu 24 hr old third-instar larvae exposed to compound through topical application to dorsal abdomen assessed as precocious metamorphosis at 0.1 ug/larva in presence of 10 ug/larva methoprene applied to 24 hr old third-instar larvae relative to untreated control.
Assay [12] deals with Bombyx mori. Nature of the assay: Anti-juvenile hormone activity in Bombyx mori Shunrei x Shougetsu 24 hr old third-instar larvae exposed to compound through topical application to dorsal abdomen assessed as precocious metamorphosis at 0.1 ug/larva in presence of 20 ppm 20-hydroxyecdysone applied through diet for first 48 hr to 24 hr old third-instar larvae relative to untreated control.

Assay [13] has as its system Bombyx mori. The experiment in a line: Anti-juvenile hormone activity in Bombyx mori Shunrei x Shougetsu 24 hr old third-instar larvae exposed to compound through topical application to dorsal abdomen assessed as precocious metamorphosis at 0.1 ug/larva in presence of 20 ppm 20-hydroxyecdysone applied through diet for first 48 hr to 24 hr old newly molted fourth-instar larvae relative to untreated control.

The test system of assay [14] is Bombyx mori. The experiment in a line: Anti-juvenile hormone activity in Bombyx mori Shunrei x Shougetsu first 48 hr old newly molted third-instar larvae assessed as precocious metamorphosis at 200 ppm mixed with artificial diet untreated control.
For assay [15], the system named is Bombyx mori. Nature of the assay: Anti-juvenile hormone activity in Bombyx mori Shunrei x Shougetsu first 48 hr old newly molted third-instar larvae assessed as precocious metamorphosis at 50 ppm mixed with artificial diet untreated control.
For assay [16], the system named is Bombyx mori. The experiment in a line: Anti-juvenile hormone activity in Bombyx mori Shunrei x Shougetsu 24 hr old third-instar larvae exposed to compound through topical application to dorsal abdomen assessed as precocious metamorphosis at 0.1 ug/larva in presence of 10 ug/larva methoprene applied to 24 hr old newly molted fourth-instar larvae relative to untreated control.

The structures appear in SMILES notation.

For `CCCC[C@H](COc1ccc(C(=O)OCC)cc1)Cc1ccccc1`, the Activity in the assay on Bombyx mori [1] is listed as 15%; in the assay on Bombyx mori [2] it was 10%; in the assay on Bombyx mori [4], 89%; with Bombyx mori [5], 0%; with Bombyx mori [6], 96%; with Bombyx mori [7], 20%. Also, the Activity was 52% in the assay with Bombyx mori [8], 95% in the assay on Bombyx mori [9] and 17% with Bombyx mori [10]. The Time in the assay with Bombyx mori [3] is 14.3 days.
On to `CCCCC[C@@H](COc1ccc(C(=O)OCC)cc1)Cc1ccccc1`, for which the Activity in the assay with Bombyx mori [1] amounted to 76%; in the assay on Bombyx mori [6], 54%; with Bombyx mori [8] it was 0%; in the assay on Bombyx mori [10], 83%.
Take `CCCCC(COc1ccc(C(=O)OCC)cc1)Cc1ccccc1` (racemic): the Activity is reported as 0% in the assay on Bombyx mori [11]; 12% in the assay on Bombyx mori [1]; 5% with Bombyx mori [2]; 95% with Bombyx mori [12]; 100% in the assay on Bombyx mori [13]; 5% in the assay on Bombyx mori [14]. Moreover, the Activity with Bombyx mori [4] is listed as 45%; with Bombyx mori [15] it was 58%; in the assay with Bombyx mori [5] it was 10%; in the assay with Bombyx mori [6] it was 90%; with Bombyx mori [7], 0%; with Bombyx mori [16], 0%. For the same molecule, the Activity in the assay with Bombyx mori [8] is 21%; in the assay on Bombyx mori [9], 85%; with Bombyx mori [10], 34%. In the assay on Bombyx mori [3], the Time stood at 10.1 days.
Regarding `CCOC(=O)c1ccc(OCC(CC)OC(=O)C(C)(C)C)cc1` (stereo not given), the Activity in the assay with Bombyx mori [1] turned out to be 0%; with Bombyx mori [6] it was 10%; in the assay with Bombyx mori [8], 0%; in the assay on Bombyx mori [10] it was 0%. Also, the Time in the assay with Bombyx mori [3] came out at 12.7 days.
On to `CCCC(COc1ccc(C(=O)OCC)cc1)Cc1ccccc1` (racemic), for which the Activity is listed as 87% with Bombyx mori [1], 22% in the assay on Bombyx mori [6], 0% in the assay on Bombyx mori [8] and 37% in the assay with Bombyx mori [10].
As for `CCOC(=O)c1ccc(OCC(CC)Cc2ccccc2)cc1` (racemic), the Activity in the assay on Bombyx mori [6] worked out at 0%; with Bombyx mori [8] it was 0%; with Bombyx mori [10] it was 5%.
`CCCCC[C@H](COc1ccc(C(=O)OCC)cc1)Cc1ccccc1`: the Activity is recorded as 17% in the assay on Bombyx mori [1], 97% with Bombyx mori [6], 65% in the assay on Bombyx mori [8] and 39% with Bombyx mori [10].
On the same counts, the results for `CCCCCC(COc1ccc(C(=O)OCC)cc1)Cc1ccccc1` (racemic) are 20%, 94%, 37% and 48%.
On to `COC(C)(C)CCC[C@H](C)C/C=C/C(C)=C/C(=O)OC(C)C` [METHOPRENE], for which the Time with Bombyx mori [3] was 10.9 days.
`CCOC(=O)c1ccc(OCC(Cc2ccccc2)Cc2ccccc2)cc1`: the Activity was found to be 95% in the assay with Bombyx mori [1], 35% in the assay with Bombyx mori [6], 0% in the assay on Bombyx mori [8] and 65% in the assay with Bombyx mori [10].
In the case of `CCCCC(COc1ccc(C(=O)O)cc1)Cc1ccccc1` (stereo not given), the Activity in the assay with Bombyx mori [14] and with Bombyx mori [15] was 0% in each case.
With `CCOC(=O)c1ccc(OCC(Cc2ccccc2)CC(C)C)cc1` (racemic), the Activity amounted to 46% with Bombyx mori [1], 0% in the assay on Bombyx mori [6], 0% in the assay on Bombyx mori [8] and 22% in the assay on Bombyx mori [10].
For the molecule `CCCC[C@@H](COc1ccc(C(=O)OCC)cc1)Cc1ccccc1`, the Activity amounted to 67% in the assay with Bombyx mori [1]; 5% with Bombyx mori [2]; 0% with Bombyx mori [4]; 0% with Bombyx mori [5]; 8% with Bombyx mori [6]; 0% with Bombyx mori [7]. In addition, the Activity is reported as 0% in the assay with Bombyx mori [8], 0% in the assay with Bombyx mori [9] and 42% with Bombyx mori [10]. Further, the Time in the assay with Bombyx mori [3] came to 8.4 days.
On to `CCCCCCC(COc1ccc(C(=O)OCC)cc1)Cc1ccccc1` (racemic), for which the Activity in the assay with Bombyx mori [1] was 62%; in the assay with Bombyx mori [6], 20%; with Bombyx mori [8], 0%; in the assay on Bombyx mori [10], 42%.
